Data: patent US9193721B2, “Fused derivatives as PI3Kδ inhibitors” (Incyte Holdings Corporation, priority 2010, dated 2015)
Counter-ions that a name gives are not always drawn.

How the values were obtained:
PI3Kδ (p110δ/p85α) = target: T1, PI3Kδ (p110δ/p85α) (Homo sapiens, UniProt O00329); assay: PI3Kδ scintillation proximity assay (assay A); format: biochemical; conditions: 20 μM PIP2, 20 μM ATP, 4 nM PI3Kδ, 210 minutes, room temperature
T1 construct: purchased Millipore (Bedford, Mass.)
Protocol: PI3Kδ Scintillation Proximity Assay
[γ-33P] ATP (10 mCi/mL) was purchased from Perkin-Elmer (Waltham, Mass.). […] PI3Kδ (p110δ/p85α) was purchased from Millipore (Bedford, Mass.). ATP, MgCl2, DTT, EDTA, MOPS and CHAPS were purchased from Sigma-Aldrich (St. Louis, Mo.). Wheat Germ Agglutinin (WGA) YSi SPA Scintillation Beads was purchased from GE healthcare life sciences (Piscataway, N.J.).
The kinase reaction was conducted in polystyrene 384-well matrix white plate from Thermo Fisher Scientific in a final volume of 25 μL. Inhibitors were first diluted serially in DMSO and added to the plate wells before the addition of other reaction components. The final concentration of DMSO in the assay was 0.5%. The PI3K assays were carried out at room temperature in 20 mM MOPS, pH 6.7, 10 mM MgCl2, 5 mM DTT and CHAPS 0.03%. Reactions were initiated by the addition of ATP, the final reaction mixture consisted of 20 μM PIP2, 20 μM ATP, 0.2 μCi [γ-^33P] ATP, 4 nM PI3Kδ. Reactions were incubated for 210 minutes and terminated by the addition of 40 μL SPA beads suspended in quench buffer: 150 mM potassium phosphate pH 8.0, 20% glycerol. 25 mM EDTA, 400 μM ATP. The final concentration of SPA beads is 1.0 mg/mL. After the plate sealing, plates were shaken overnight at room temperature and centrifuged at 1800 rpm for 10 minutes, the radioactivity of the product was determined by scintillation counting on Topcount (Perkin-Elmer). IC50 determination was performed by fitting the curve of percent control activity versus the log of the inhibitor concentration using the GraphPad Prism 3.0 software.

[1] = test system: Pfeiffer cell line (diffuse large B cell lymphoma); assay: Pfeiffer cell proliferation assay; format: cell-based; conditions: Homo sapiens, [3H]-thymidine incorporation after 3-4 days plus 12 hours
Protocol: Pfeiffer Cell Proliferation Assay
Pfeiffer cell line (diffuse large B cell lymphoma) was purchased from ATCC (Manassas, Va.) and maintained in the culture medium recommended (RPMI and 10% FBS). To measure the anti-proliferation activity of the compounds, the Pfeiffer cells were plated with the culture medium (2×10^3 cells/well/per 200 μl) into 96-well ultra-low binding plates (Corning, Corning, N.Y.), in the presence or absence of a concentration range of test compounds. After 3-4 days, [^3H]-thymidine (1 μCi/well) (PerkinElmer, Boston, Mass.) in PBS was then added to the cell culture for an additional 12 hours before the incorporated radioactivity was separated by filtration with water through GF/B filters (Packard Bioscience, Meridenj, Conn.) and measured by liquid scintillation counting with a TopCount (Packard Bioscience).

T1 sequence (O00329 whole entry): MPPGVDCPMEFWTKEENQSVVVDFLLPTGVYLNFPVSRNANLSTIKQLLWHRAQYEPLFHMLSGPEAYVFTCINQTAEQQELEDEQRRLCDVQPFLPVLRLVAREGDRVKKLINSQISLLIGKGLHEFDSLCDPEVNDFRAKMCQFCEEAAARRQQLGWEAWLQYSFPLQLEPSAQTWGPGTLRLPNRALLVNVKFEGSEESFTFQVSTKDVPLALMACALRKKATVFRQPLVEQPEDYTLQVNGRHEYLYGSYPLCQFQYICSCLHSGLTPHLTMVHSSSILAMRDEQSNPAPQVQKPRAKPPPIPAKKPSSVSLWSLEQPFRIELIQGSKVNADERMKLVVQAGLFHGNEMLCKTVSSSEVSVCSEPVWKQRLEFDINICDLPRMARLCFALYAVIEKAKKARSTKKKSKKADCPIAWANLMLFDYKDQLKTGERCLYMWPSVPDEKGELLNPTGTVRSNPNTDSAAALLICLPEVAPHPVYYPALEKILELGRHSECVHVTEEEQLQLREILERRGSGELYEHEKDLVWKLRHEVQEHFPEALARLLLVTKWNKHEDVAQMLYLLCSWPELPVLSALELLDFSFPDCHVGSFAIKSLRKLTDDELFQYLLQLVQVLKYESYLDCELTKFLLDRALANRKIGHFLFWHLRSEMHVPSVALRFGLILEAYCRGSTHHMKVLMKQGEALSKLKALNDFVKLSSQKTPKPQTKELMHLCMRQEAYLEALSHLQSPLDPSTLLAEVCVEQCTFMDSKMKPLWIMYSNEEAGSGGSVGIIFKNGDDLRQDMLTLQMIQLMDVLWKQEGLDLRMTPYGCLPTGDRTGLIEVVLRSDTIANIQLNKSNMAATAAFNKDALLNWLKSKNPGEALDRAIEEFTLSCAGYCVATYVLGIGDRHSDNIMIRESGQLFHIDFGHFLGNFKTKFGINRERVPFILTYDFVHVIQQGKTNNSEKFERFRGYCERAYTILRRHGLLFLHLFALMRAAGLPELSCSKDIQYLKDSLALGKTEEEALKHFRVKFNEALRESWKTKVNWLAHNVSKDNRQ
T1 sequence (P27986 whole entry partner): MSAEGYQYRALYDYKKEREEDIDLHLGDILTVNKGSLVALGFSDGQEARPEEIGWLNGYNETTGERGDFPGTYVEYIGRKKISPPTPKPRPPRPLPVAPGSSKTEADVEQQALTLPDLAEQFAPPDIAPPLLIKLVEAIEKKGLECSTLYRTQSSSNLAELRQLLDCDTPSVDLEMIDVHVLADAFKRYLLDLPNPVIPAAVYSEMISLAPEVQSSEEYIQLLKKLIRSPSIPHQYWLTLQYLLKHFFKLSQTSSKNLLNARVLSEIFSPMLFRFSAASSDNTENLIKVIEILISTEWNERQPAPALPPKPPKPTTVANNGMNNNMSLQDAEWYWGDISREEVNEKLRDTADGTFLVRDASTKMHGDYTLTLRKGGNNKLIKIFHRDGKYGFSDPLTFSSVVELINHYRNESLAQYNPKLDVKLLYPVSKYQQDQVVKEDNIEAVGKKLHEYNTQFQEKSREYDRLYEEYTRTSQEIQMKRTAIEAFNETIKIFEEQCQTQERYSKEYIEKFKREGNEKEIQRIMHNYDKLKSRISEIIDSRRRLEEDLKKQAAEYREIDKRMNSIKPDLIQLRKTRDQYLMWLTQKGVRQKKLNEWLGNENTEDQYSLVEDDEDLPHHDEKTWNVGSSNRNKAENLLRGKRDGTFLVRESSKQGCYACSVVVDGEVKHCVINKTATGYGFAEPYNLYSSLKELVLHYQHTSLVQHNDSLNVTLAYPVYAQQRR

| Structure (SMILES) | IC50 (PI3Kδ (p110δ/p85α)) | IC50 [1] |
| --- | --- | --- |
| CC(Nc1ncnc2[nH]cnc12)c1cc(Cl)c2cncn2c1-c1cccc(F)c1 (racemic) [Example 1, N-{1-[8-Chloro-5-(3-fluorophenyl)imidazo[1,5-a]pyridin-6-yl]ethyl}-9H-purin-6-amine] | < 50 nM | ≤ 100 nM |
| Cc1ncc2c(Cl)cc(C(C)Nc3ncnc4[nH]cnc34)c(-c3cccc(F)c3)n12 (racemic) [Example 2, N-{1-[8-Chloro-5-(3-fluorophenyl)-3-methylimidazo[1,5-a]pyridin-6-yl]ethyl}-9H-purin-6-amine] | < 50 nM | – |
| CC(Nc1ncnc2[nH]cnc12)c1cc(Cl)c2cncn2c1-c1cccc(F)c1 (single isomer, unassigned) [1, isomer 1] | < 50 nM | ≤ 100 nM |
| CC(Nc1ncnc2[nH]cnc12)c1cc(Cl)c2cncn2c1-c1cccc(F)c1 (single isomer, unassigned) [1, isomer 2] | 50 to 200 nM | – |
| CC(Nc1ncnc2[nH]cnc12)c1cc(Cl)c2cncn2c1N1CCN(C(=O)OC(C)(C)C)CC1 (stereo not drawn) [Example 6, tert-Butyl 4-{8-chloro-6-[1-(9H-purin-6-ylamino)ethyl]imidazo[1,5-a]pyridin-5-yl}piperazine-1-carboxylate] | 50 to 200 nM | > 3000 nM |
| CC(Nc1ncnc2[nH]cnc12)c1cc(Cl)c2cncn2c1N1CCN(C(=O)C2CC2)CC1 (stereo not drawn) [Example 7, N-(1-{8-Chloro-5-[4-(cyclopropylcarbonyl)piperazin-1-yl]imidazo[1,5-a]pyridin-6-yl}ethyl)-9H-purin-6-amine] | < 50 nM | 100 to 500 nM |
| COCC(=O)N1CCN(c2c(C(C)Nc3ncnc4[nH]cnc34)cc(Cl)c3cncn23)CC1 (stereo not drawn) [Example 8, N-(1-{8-chloro-5-[4-(methoxyacetyl)piperazin-1-yl]imidazo[1,5-a]pyridin-6-yl}ethyl)-9H-purin-6-amine] | < 50 nM | > 3000 nM |
| CC(Nc1ncnc2[nH]cnc12)c1cc(Cl)c2cncn2c1N1CCN(C(=O)CC#N)CC1 (stereo not drawn) [Example 10, 3-(4-{8-Chloro-6-[1-(9H-purin-6-ylamino)ethyl]imidazo[1,5-a]pyridin-5-yl}piperazin-1-yl)-3-oxopropanenitrile] | < 50 nM | > 3000 nM |
| CC(Nc1ncnc2[nH]cnc12)c1cc(Cl)c2cncn2c1N1CCN(C(=O)c2cnn(C)c2)CC1 (stereo not drawn) [Example 11, N-[1-(8-Chloro-5-{4-[(1-methyl-1H-pyrazol-4-yl)carbonyl]piperazin-1-yl}imidazo[1,5-a]pyridin-6-yl)ethyl]-9H-purin-6-amine] | < 50 nM | > 3000 nM |
| CC(Nc1ncnc2[nH]cnc12)c1cc(Cl)c2cncn2c1N1CCN(C2CCC2)CC1 (stereo not drawn) [Example 15, N-{1-[8-Chloro-5-(4-cyclobutylpiperazin-1-yl)imidazo[1,5-a]pyridin-6-yl]ethyl}-9H-purin-6-amine] | 50 to 200 nM | ≤ 100 nM |
| CC(Nc1ncnc2[nH]cnc12)c1cc(Cl)c2cncn2c1N1CCN(CC2CCCO2)CC1 (stereo not drawn) [Example 16, N-(1-{8-Chloro-5-[4-(tetrahydrofuran-2-ylmethyl)piperazin-1-yl]imidazo[1,5-a]pyridin-6-yl}ethyl)-9H-purin-6-amine] | 200 to 750 nM | 100 to 500 nM |
| CC(Nc1ncnc2[nH]cnc12)c1cc(Cl)c2cncn2c1N1CC[C@@H](O)C1 (stereo partly drawn) [Example 23, (3R)-1-{8-Chloro-6-[1-(9H-purin-6-ylamino)ethyl]imidazo[1,5-a]pyridin-5-yl}pyrrolidin-3-ol] | 50 to 200 nM | ≤ 100 nM |

The remaining lines, values ahead:

| IC50 (PI3Kδ (p110δ/p85α)) | IC50 [1] | Structure (SMILES) |
| --- | --- | --- |
| 200 to 750 nM | 1000 to 3000 nM | CC(Nc1ncnc2[nH]cnc12)c1cc(Cl)c2nccn2c1-c1cccc(F)c1 (stereo not drawn) [Example 3, N-{1-[8-Chloro-5-(3-fluorophenyl)imidazo[1,2-a]pyridin-6-yl]ethyl}-9H-purin-6-amine] |
| < 50 nM | 500 to 1000 nM | CC(=O)N1CCN(c2c(C(C)Nc3ncnc4[nH]cnc34)cc(Cl)c3cncn23)CC1 (stereo not drawn) [Example 4, N-{1-[5-(4-Acetylpiperazin-1-yl)-8-chloroimidazo[1,5-a]pyridin-6-yl]ethyl}-9H-purin-6-amine] |
| 50 to 200 nM | > 3000 nM | CC(Nc1ncnc2[nH]cnc12)c1cc(Cl)c2cncn2c1N1CCN(S(C)(=O)=O)CC1 (stereo not drawn) [Example 5, N-(1-{8-chloro-5-[4-(methylsulfonyl)piperazin-1-yl]imidazo[1,5-a]pyridin-6-yl}ethyl)-9H-purin-6-amine] |
| < 50 nM | ≤ 100 nM | CC(Nc1ncnc2[nH]cnc12)c1cc(Cl)c2cncn2c1N1CCNCC1 (stereo not drawn) [Example 9, N-[1-(8-Chloro-5-piperazin-1-ylimidazo[1,5-a]pyridin-6-yl)ethyl]-9H-purin-6-amine dihydrochloride] |
| 200 to 750 nM | 100 to 500 nM | COCCN1CCN(c2c(C(C)Nc3ncnc4[nH]cnc34)cc(Cl)c3cncn23)CC1 (stereo not drawn) [Example 12, N-(1-{8-Chloro-5-[4-(2-methoxyethyl)piperazin-1-yl]imidazo[1,5-a]pyridin-6-yl}ethyl)-9H-purin-6-amine] |
| 50 to 200 nM | 500 to 1000 nM | CC(Nc1ncnc2[nH]cnc12)c1cc(Cl)c2cncn2c1N1CCN(CC#N)CC1 (stereo not drawn) [Example 13, (4-{8-Chloro-6-[1-(9H-purin-6-ylamino)ethyl]imidazo[1,5-a]pyridin-5-yl}piperazin-1-yl)acetonitrile] |
| 50 to 200 nM | ≤ 100 nM | CC(Nc1ncnc2[nH]cnc12)c1cc(Cl)c2cncn2c1N1CCN(CCCC(F)(F)F)CC1 (stereo not drawn) [Example 14, N-(1-{8-Chloro-5-[4-(4,4,4-trifluorobutyl)piperazin-1-yl]imidazo[1,5-a]pyridin-6-yl}ethyl)-9H-purin-6-amine] |
| 200 to 750 nM | 100 to 500 nM | CC(Nc1ncnc2[nH]cnc12)c1cc(Cl)c2cncn2c1N1CCN(CC2CC2)CC1 (stereo not drawn) [Example 17, N-(1-{8-Chloro-5-[4-(cyclopropylmethyl)piperazin-1-yl]imidazo[1,5-a]pyridin-6-yl}ethyl)-9H-purin-6-amine] |
| < 50 nM | 100 to 500 nM | CCC(Nc1ncnc2[nH]cnc12)c1cc(Cl)c2cncn2c1-c1cccc(F)c1 (stereo not drawn) [Example 18, N-{1-[8-Chloro-5-(3-fluorophenyl)imidazo[1,5-a]pyridin-6-yl]propyl}-9H-purin-6-amine] |
| < 50 nM | ≤ 100 nM | Cc1ncc2c(Cl)cc(C(C)Nc3ncnc4[nH]cnc34)c(-c3cc(F)cc(F)c3)n12 (stereo not drawn) [Example 19, N-{1-[8-Chloro-5-(3,5-difluorophenyl)-3-methylimidazo[1,5-a]pyridin-6-yl]ethyl}-9H-purin-6-amine] |
| < 50 nM | 100 to 500 nM | CCC(Nc1ncnc2[nH]cnc12)c1cc(Cl)c2cnc(C)n2c1-c1cc(F)cc(F)c1 (stereo not drawn) [Example 20, N-{1-[8-Chloro-5-(3,5-difluorophenyl)-3-methylimidazo[1,5-a]pyridin-6-yl]propyl}-9H-purin-6-amine] |
| < 50 nM | ≤ 100 nM | CO[C@@H]1CCN(c2c(C(C)Nc3ncnc4[nH]cnc34)cc(Cl)c3cncn23)C1 (stereo partly drawn) [Example 21, N-(1-{8-Chloro-5-[(3R)-3-methoxypyrrolidin-1-yl]imidazo[1,5-a]pyridin-6-yl}ethyl)-9H-purin-6-amine] |
| < 50 nM | ≤ 100 nM | CO[C@H]1CCN(c2c(C(C)Nc3ncnc4[nH]cnc34)cc(Cl)c3cncn23)C1 (stereo partly drawn) [Example 22, N-(1-{8-Chloro-5-[(3S)-3-methoxypyrrolidin-1-yl]imidazo[1,5-a]pyridin-6-yl}ethyl)-9H-purin-6-amine] |
